Several values for one entry are separate records, joined by “and”; a condition that tells them apart may be missing. Identical values can stand only once. Like-named read-outs stand apart in the source and are kept apart here. Marks after values point to notes of the source that are not given here.
Columns and labels:
[1] = test system: Huh-7 cells carrying a HCV genotype 1a replicon; experiment: Biological Example 3: cytotoxicity in combination studies (MacSynergy II); conditions: in combination with Compound 4
[2] = test system: GT1b and GT1a mutant replicons; experiment: Biological Example 8: summary of cross resistance of mutant replicons; format: cell-based, HCV
Description: (§1) GT1b and GT1a replicons carrying Renilla Luciferase reporter were used to generate the mutant replicons. The mutations were introduced into the replicon construct by site-directed mutagenesis and confirmed by sequencing. Mutant replicon RNAs were generated from DNA by in vitro transcription and transfected into Huh-7 Lunet or C1 cells
(§2) Compounds were serially diluted 1:3 in 100% DMSO (Sigma). These serial dilutions were added to the cells at a 1:200 dilution to achieve a final concentration of 0.5% DMSO in a total volume of 200 μL. […] EC50 values were calculated using Prism.
(§3) For comparison, a fold change of 0-3 is considered “sensitive”, a fold change of 3-10 is considered “low”, a fold change of 10-50 is considered “medium” and a fold change of greater than […] is considered “high”.

HCV genotype 1a replicon [3] = experiment: Biological Example 3: HCV genotype 1a replicon assay, EC50; format: cell-based; conditions: IFN-α in Units (U) per milliliter (mL)
Description: The HCV genotype 1a replicon cell line used in this study was described previously. The cells were grown in cell culture medium containing Dulbecco's Modified Eagle Medium (DMEM) with GlutaMAX (Gibco, Carlsbad, Calif., Cat#10569-044), supplemented with 10% FBS (HyClone, Logan, Utah, Cat#SH30071.03), 100 Units/mL Penicillin, 100 μg/mL Streptomycin (Gibco, Carlsbad, Calif., Cat#15140-122), and 0.1 mM non-essential amino acids (Gibco, Carlsbad, Calif., Cat#11140-050). Replicon cells were maintained in 0.5 mg/mL Geneticin (Invitrogen, Carlsbad, Calif., Cat#10131-035) to prevent the loss of HCV replicon. The cells were passaged every 3-4 days before reaching confluency.
(§4) [formula] where XC is the fluorescence signal from the compound-treated well; MB is the average fluorescence signal from puromycin-treated wells; MD is the average fluorescence signal from DMSO-treated wells. The anti-HCV replication activity was determined by the luminescence signal generated from the reporter renilla luciferase of the HCV replicon. The percent inhibition on HCV replicon was calculated using equation 1, where XC is the luminescence signal from compound-treated well; MB is average luminescence signal from the ITMN-191-treated wells; MD is the average luminescence signal from DMSO-treated wells.
(§5) Both CC50 and EC50 values were obtained using Pipeline Pilot 5.0 software package (Accelrys, San Diego, Calif.) by nonlinear regression fitting of experimental data to equation 2: […]

[4] = test system: NS3 GT1a mutant replicons; format: cell-based, HCV
Description: as §1, §2, §3

[5] = test system: NS3 GT1b mutant replicons; format: cell-based, HCV
Description: as §1, §2, §3

[6] = test system: Huh-7 cells carrying a HCV genotype 1a replicon; experiment: Biological Example 3: cytotoxicity (calcein AM), CC50; format: cell-based; conditions: HCV genotype 1a replicon cells; IFN-α in Units (U) per milliliter (mL)
Description: The HCV replicon assay was a multiplex assay which can assess both cytotoxicity and anti-replicon activity from the same well. The CC50 assay was performed first.
The cytotoxicity effect was determined by calcein AM conversion to fluorescent product. The percent cytotoxicity was calculated by equation 1:
as §4, §5

HCV genotype 1a replicon [7] = experiment: Biological Example 3: antiviral combination studies with Compound 4 (MacSynergy II); conditions: in combination with Compound 4
HCV 1b replicon system = experiment: Biological Example 5: antiviral combination studies with Compound 6 (MacSynergy II); format: cell-based; conditions: in combination with Compound 6

For IFN-α [reference compound], the “Antagonism Volume (cytotoxicity)” value [1] was −7 ± 13 nM^2%, the “Interaction (cytotoxicity)” value [1] was “Additivity (Additivity: ≦25 and >−25 nM^2%)” and the “Synergy Volume (cytotoxicity)” value [1] was 8 ± 12 nM^2%. The susceptibility of mutants ([2]; all single NS3 PI-resistant mutants) was “full susceptibility”, the susceptibility of mutants ([2]; triple class mutants that confer resistance to PI, NS5A and Compound 1) was “susceptible” and the EC50 (HCV genotype 1a replicon [3]) was 1.4 ± 0.3^b U/mL. For the same substance, the “fold change in EC50 vs wild-type GT1a” value ([4]; mutant A156T) was 0.1 fold, the “fold change in EC50 vs wild-type GT1a” value ([4]; mutant D168A) was 1.4 fold and the “fold change in EC50 vs wild-type GT1a” value ([4]; mutant D168E) was 2.1 fold. For the same substance, the “fold change in EC50 vs wild-type GT1a” value ([4]; mutant D168G) was 0.8 fold, the “fold change in EC50 vs wild-type GT1a” value ([4]; mutant D168H) was 0.9 fold and the “fold change in EC50 vs wild-type GT1a” value ([4]; mutant D168N) was 1.1 fold. For the same substance, the “fold change in EC50 vs wild-type GT1a” value ([4]; mutant D168V) was 1.0 fold, the “fold change in EC50 vs wild-type GT1a” value ([4]; mutant D168Y) was 1.2 fold and the “fold change in EC50 vs wild-type GT1a” value ([4]; mutant R155I) was 0.6 fold. For the same substance, the “fold change in EC50 vs wild-type GT1a” value ([4]; mutant R155K) was 0.7 fold, the “fold change in EC50 vs wild-type GT1a” value ([4]; mutant R155K + L31M) was 0.2 fold and the “fold change in EC50 vs wild-type GT1a” value ([4]; mutant R155K + M28T) was 1.1 fold. The “fold change in EC50 vs wild-type GT1a” value ([4]; mutant R155K + Q30H + Y448H) was 1.9 fold, the “fold change in EC50 vs wild-type GT1a” value ([4]; mutant R155K + Q30R) was 1.6 fold and the “fold change in EC50 vs wild-type GT1a” value ([4]; mutant R155K + Y93H) was 0.3 fold. The “fold change in EC50 vs wild-type GT1a” value ([4]; mutant R155K + Y488H (second line, r26)) was 0.7 fold, the “fold change in EC50 vs wild-type GT1a” value ([4]; mutant R155M) was 0.3 fold and the “fold change in EC50 vs wild-type GT1a” value ([4]; mutant R155S) was 0.1 fold. For the same substance, the “fold change in EC50 vs wild-type GT1a” value ([4]; mutant R155T) was 0.2 fold, the “fold change in EC50 vs wild-type GT1a” value ([4]; mutant R155W) was 0.6 fold and the “fold change in EC50 vs wild-type GT1a” value ([4]; mutant R155k + Q30H) was 1.4 fold. For the same substance, the “fold change in EC50 vs wild-type GT1b” value ([5]; mutant A156D) was 0.6 fold, the “fold change in EC50 vs wild-type GT1b” value ([5]; mutant A156G) was 1.1 fold and the “fold change in EC50 vs wild-type GT1b” value ([5]; mutant A156T) was 0.8 fold. The “fold change in EC50 vs wild-type GT1b” value ([5]; mutant A156V) was 0.9 fold, the “fold change in EC50 vs wild-type GT1b” value ([5]; mutant D168A) was 0.9 fold and the “fold change in EC50 vs wild-type GT1b” value ([5]; mutant D168E) was 0.9 fold. The “fold change in EC50 vs wild-type GT1b” value ([5]; mutant D168E + L31V + Y448H) was 0.7 fold, the “fold change in EC50 vs wild-type GT1b” value ([5]; mutant D168E + Y93H + Y448H) was 0.4 fold and the “fold change in EC50 vs wild-type GT1b” value ([5]; mutant D168G) was 0.6 fold. The “fold change in EC50 vs wild-type GT1b” value ([5]; mutant D168H) was 0.8 fold, the “fold change in EC50 vs wild-type GT1b” value ([5]; mutant D168N) was 1.0 fold and the “fold change in EC50 vs wild-type GT1b” value ([5]; mutant D168T) was 0.9 fold. For the same substance, the “fold change in EC50 vs wild-type GT1b” value ([5]; mutant D168V) was 1.5 fold, the “fold change in EC50 vs wild-type GT1b” value ([5]; mutant D168V + L31V + Y448H) was 0.5 fold and the “fold change in EC50 vs wild-type GT1b” value ([5]; mutant D168V + Y93H + Y448H) was 0.6 fold. For the same substance, the “fold change in EC50 vs wild-type GT1b” value ([5]; mutant D168Y) was 1.3 fold, the “fold change in EC50 vs wild-type GT1b” value ([5]; mutant L31V + D168E) was 1.3 fold and the “fold change in EC50 vs wild-type GT1b” value ([5]; mutant L31V + D168V) was 1.2 fold. The “fold change in EC50 vs wild-type GT1b” value ([5]; mutant R155C) was 0.7 fold, the “fold change in EC50 vs wild-type GT1b” value ([5]; mutant R155G) was 1.1 fold and the “fold change in EC50 vs wild-type GT1b” value ([5]; mutant R155K) was 1.5 fold. For the same substance, the “fold change in EC50 vs wild-type GT1b” value ([5]; mutant R155L) was 1.1 fold, the “fold change in EC50 vs wild-type GT1b” value ([5]; mutant R155Q) was 0.6 fold and the “fold change in EC50 vs wild-type GT1b” value ([5]; mutant R155W) was 0.5 fold. The “fold change in EC50 vs wild-type GT1b” value ([5]; mutant Y93H + D168E) was 1.1 fold, the “fold change in EC50 vs wild-type GT1b” value ([5]; mutant Y93H + D168V) was 0.7 fold and the CC50 [6] was >50^b U/mL. The “Antagonism Volume” value (HCV genotype 1a replicon [7]) was 0 ± 0 nM^2%, the Interaction (HCV genotype 1a replicon [7]) was “Additivity (Additivity: ≦25 and >−25 nM^2%)” and the “Synergy Volume” value (HCV genotype 1a replicon [7]) was 12 ± 6 nM^2%. For the same substance, the “Antagonism Volume” value (HCV 1b replicon system) was 0.0 ± 0.0 nM^2, the Interaction (HCV 1b replicon system) was “Minor Synergy” and the “Synergy Volume” value (HCV 1b replicon system) was 32 nM^2 and 32 ± 1.4 nM^2.

From US9452154B2, “Methods for treating HCV” (Gilead Sciences, Inc., priority 2010, dated 2016)
